Data taken from BindingDB's records for doi:10.1002/cbic.201100332 (University of British Columbia, 2011).

Biological target: T1, Lysosomal acid glucosylceramidase (Homo sapiens, UniProt P04062)
T1 sequence (P04062 whole entry): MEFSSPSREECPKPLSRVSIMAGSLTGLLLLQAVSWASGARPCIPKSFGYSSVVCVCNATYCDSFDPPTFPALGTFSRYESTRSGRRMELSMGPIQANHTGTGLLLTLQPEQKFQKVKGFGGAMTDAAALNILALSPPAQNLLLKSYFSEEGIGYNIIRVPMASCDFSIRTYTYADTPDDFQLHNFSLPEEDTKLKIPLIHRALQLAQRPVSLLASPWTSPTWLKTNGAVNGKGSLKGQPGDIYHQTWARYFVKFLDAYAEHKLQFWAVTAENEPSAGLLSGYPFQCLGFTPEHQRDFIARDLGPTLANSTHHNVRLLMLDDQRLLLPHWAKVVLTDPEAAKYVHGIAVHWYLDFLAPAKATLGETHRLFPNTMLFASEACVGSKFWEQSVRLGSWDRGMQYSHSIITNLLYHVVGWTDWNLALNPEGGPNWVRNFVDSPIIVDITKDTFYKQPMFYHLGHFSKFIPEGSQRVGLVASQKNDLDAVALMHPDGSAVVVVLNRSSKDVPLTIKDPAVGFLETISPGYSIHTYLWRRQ
Assay: Fluorescene-based Assay
Description: Fluorescene-based assay using beta-glucocerebrosidase.

SMILES | Ki (pH 5.5) [nM] | Ki (pH 7) [nM]
OCCCC1NCC(O)C(O)C1CO (stereo unspecified) [Isofagomine derivative, 10] | 100 | 110
CCCC1(CCC)NCC(O)C(O)C1CO (stereo unspecified) [Isofagomine derivative, 8] | 600 | 1400
CCCC1NCC(O)C(O)C1CO (stereo unspecified) [Isofagomine derivative, 6] | 610 | 210
